From patent US20100189707A1, “Stable Enzymatic Peracid Generating Systems” (priority 2007, published 2010)

Legend:
B. subtilis spores [1] = test: Killing of B. subtilis spores by PAA; assay type: cell-based; settings: 15 min RT
Procedure: In this Example, experiments conducted to determine the killing curve of peracetic acid (PAA) and PAA in conjunction with detergent (commercially available PUREX® [Dial] was used in this Example) for B. subtilis spores. In these experiments, the B. subtilis spores were prepared as known in the art (See e.g., Siccardi et al., J. Bacteriol., 121:13-19 [1975]). Assays were carried out in duplicate in 96-well, round bottomed microtiter plates (Costar) with peracetic acid (32 wt % in acetic acid; Aldrich). The PAA was serially diluted in either 50 mM KPO4 buffer, pH 7.1 (“Buffer”), or in a 1:500 dilution of Purex (original formula; Dial) in the same buffer (“Buffer+Det”) in a total volume of 50 μl. The amount of PAA added to the assay was 0, 0.4, 4 or 40 mM. A volume of 5 μl of the spore suspension, containing 10^9-10^10 spores, was then added to each well and the assay incubated for 15 min at RT. Ice cold LB (150 μl) (See e.g., Sambrook et al., “Molecular Cloning: A Laboratory Manual”, Second Edition (Cold Spring Harbor), [1989]) was then added to each well, mixed, and 100 μl transferred to a fresh 96-well plate. Serial dilutions of each solution were made (in a total volume of 100 μl/well). A volume of 5 μl of each dilution was spotted onto LA plates (Sambrook et al., supra), and incubated at 37° C. for 17-24 h. Colonies were counted and the % spore killing was determined relative to the respective controls (buffer alone or buffer+detergent, without peracid). The results are presented in Table 1, as an average of duplicates from one experiment. However, the experiment was done twice in duplicate with similar results.

S54V-MsAcT = test: Enzymatic generation of PAA by S54V variant (ABTS assay); assay type: biochemical, M. smegmatis; settings: for relative conversion rate to PAA for the three ester substrates: with S54V-MsAcT, same method as for PGDA
Procedure: In these experiments, methods known in the art were used to determine the concentration of PAA (See e.g., Pinkernell et al., Analyst, 122:567-571 [1997]). In this ABTS assay, 100 μl of the solution to be analyzed was added to 1 ml of 125 mM potassium citrate buffer, pH 5.0, containing 1.0 mM 3-ethylbenzthiazoline-6-sulfonic acid (ABTS) and 50 uM KI, and allowed to incubate at RT for 3 minutes. The absorbance was measured at 420 nm in a HP 8452A Diode Array Spectrophotomer and compared to a standard curve prepared using authentic standard. The enzymatic reactions to form PAA were initiated with addition of enzyme and conducted at RT. Aliquots were withdrawn from the reactions at the indicated times and analyzed for PAA concentration. The sodium percarbonate used in these experiments was obtained from Kemira and the hydrogen peroxide was obtained from EM Science.
A solution of 39 mM sodium percarbonate (sodium carbonate peroxyhydrate, Technical grade 85%, yielding 100 mM effective H2O2; Kemira) was prepared in 320 mM KPO4 pH 7.1. […] To compare the enzymatic production of PAA from prepared H2O2 (32 wt %, Aldrich) or H2O2 formed from percarbonate under identical pH conditions, two reactions were prepared. One reaction contained 100 mM H2O2 in 320 mM KPO4, pH 7.6, 100 mM 1,2-propylene glycol diacetate (Aldrich), and 2 ppm variant S54V. The absolute concentration of H2O2 was assumed from the value stated on the label and not confirmed by analysis. The second reaction contained 39 mM sodium percarbonate in 320 mM KPO4, pH 7.1, 100 mM 1,2-propylene glycol diacetate, and 2 ppm S54V. The reactions were initiated by the addition of the enzyme. Samples were withdrawn at the times indicated and the concentration of PAA determined as described in Example 1.
In order to study the use of different propyl alcohol acetate ester substrates, the generation of PAA was carried out using the same general method described above for PGDA, but using either propyl acetate or triacetin as the ester substrate. […]
In this Example, experiments to assess the amount of peracetic acid produced from glucose and propyleneglycol diacetate are described. […] Further samples were withdrawn at the times indicated in FIG. 2, and the concentration of PAA determined as described above. No PAA was detected before the addition of enzyme and approximately 9.5 mM PAA was produced from the 20 mM 1,2-propylene glycol diacetate and the H2O2 produced from the glucose/glucose oxidase reaction.
In these experiments, three reactions were prepared, consisting of 320 mM KPO4 pH 7.1, 100 mM 1,2-propylene glycol diacetate (Aldrich), and 100 mM sodium percarbonate. […] Samples were withdrawn at the times indicated in the Figure, and the concentration of PAA determined as described above.

B. subtilis spores [2] = test: MsAcT system generated PAA killing of B. subtilis spores in buffer or detergent; assay type: cell-based; settings: single reaction components in 400 mM KPO4 pH 7.1: 2 ppm S54V variant, 39 mM percarbonate, 100 mM PGDA
Procedure: In this experiment, sodium percarbonate was used as the source of H2O2. The final solution contained: 100 mM 1,2-propylene glycol diacetate, 2 ppm S54V variant, 39 mM sodium percarbonate (Technical grade 85%; yielding 100 mM effective H2O2) in 320 mM KPO4 pH 7.1 in a total volume of 800 μl. This mix (yield 40 mM PAA) was serially diluted to give additional mixes that yielded 4.9, 9.9 and 20.5 mM PAA. A mix with only 400 mM KPO4 pH 7.1 was used to determine total spore counts in the absence of PAA. The mixes were allowed to incubate at room temperature for 3 min. A volume of 180 μl of each of the mixes was then dispensed into duplicate wells of a round-bottomed 96-well plate (Costar) that contained 20 μl of the spore suspension used in Example 1, to yield a total volume of 200 μl in each well. The liquid was gently pipetted 4-5 times to ensure mixing of the components. The mixes were incubated with the spores for a further 15 or 30 minutes at room temperature. At the 15 and 30 minute time points, 20 μl were removed from each of the wells, added to wells in a fresh 96-well plate and serially diluted in LB to 10^−7 in a total volume of 100 μl. A volume of 5 μl from each dilution of each spore mixture was spotted onto an LA plate, allowed to dry and then incubated overnight at 37° C. Also at the 15 and 30 min time points, an appropriate volume was removed from each well and diluted sufficiently in dH2O to yield a measurable amount of PAA using the ABTS assay on scale with a standard, as described in Example 1. The results of the spore killing are presented as an average of the duplicates.
The experiment was repeated exactly as described except that a 1:500 dilution of Purex in 320 mM KPO4 pH 7.1, was used in place of the buffer. The results are presented in Table 3 (average of duplicates). Controls included various reaction components in 400 mM KPO4 pH 7.1 buffer: 2 ppm S54V variant, 2 ppm S54V variant with 39 mM percarbonate, 100 mM 1,2-propylene glycol diacetate, 100 mM 1,2-propylene glycol diacetate with 39 mM sodium percarbonate, 39 mM sodium percarbonate. […]

In the case of `CC(=O)OO` [PAA, peracetic acid], the “% Spore Killing” value (B. subtilis spores [1]; Buffer + Detergent, 0.4 mM PAA) is reported as 0.05%, the Spores/ml (B. subtilis spores [1]; Buffer + Detergent, 0.4 mM PAA) is reported as 1.7 × 10^9 Spores/ml and the “% Spore Killing” value (B. subtilis spores [1]; Buffer + Detergent, 4 mM PAA) is reported as 86.4%. For the same molecule, the Spores/ml (B. subtilis spores [1]; Buffer + Detergent, 4 mM PAA) was 2.4 × 10^8 Spores/ml, the “% Spore Killing” value (B. subtilis spores [1]; Buffer + Detergent, 40 mM PAA) was 100% and the Spores/ml (B. subtilis spores [1]; Buffer + Detergent, 40 mM PAA) was 0 Spores/ml. The “% Spore Killing” value (B. subtilis spores [1]; Buffer, 0.4 mM PAA) was 86.4%, the Spores/ml (B. subtilis spores [1]; Buffer, 0.4 mM PAA) was 2.4 × 10^8 Spores/ml and the “% Spore Killing” value (B. subtilis spores [1]; Buffer, 4 mM PAA) was 90%. For the same molecule, the Spores/ml (B. subtilis spores [1]; Buffer, 4 mM PAA) was 1.6 × 10^8 Spores/ml, the “% Spore Killing” value (B. subtilis spores [1]; Buffer, 40 mM PAA) was 100% and the Spores/ml (B. subtilis spores [1]; Buffer, 40 mM PAA) was 0 Spores/ml.

With `CC(=O)OCC(C)OC(C)=O` (stereo not shown) [PGDA, 1,2-propylene glycol diacetate] the “relative conversion rate to PAA for the three ester substrates” value (S54V-MsAcT) was “PGDA >triacetin >propyl acetate” and the “spores/ml after a 30 min incubation” value (B. subtilis spores [2]) was 5×10^9 spores/ml.

For `CCCOC(C)=O` [propyl acetate], the “relative conversion rate to PAA for the three ester substrates” value (S54V-MsAcT) was “PGDA >triacetin >propyl acetate”.

`O=C([O-])[O-].O=C([O-])[O-].OO.OO.OO.[Na+].[Na+].[Na+].[Na+]` [sodium percarbonate] was tested, and the “spores/ml after a 30 min incubation” value (B. subtilis spores [2]) was 1×10^9 spores/ml.

B1: S54V variant: M. smegmatis acyl transferase variant comprising the S54V substitution (protein)
chain: MAKRILCFGDSLTWGWVPVEDGAPTERFAPDVRWTGVLAQQLGADFEVIEEGLVARTTNIDDPTDPRLNGASYLPSCLATHLPLDLVIIMLGTNDTKAYFRRTPLDIALGMSVLVTQVLTSAGGVGTTYPAPKVLVVSPPPLAPMPHPWFQLIFEGGEQKTTELARVYSALASFMKVPFFDAGSVISTDGVDGIHFTEANNRDLGVALAEQVRSLL
With B1 the PAA produced (S54V-MsAcT; 20 mM 1,2-propylene glycol diacetate, H2O2 from glucose/glucose oxidase, 2 ppm S54V variant, RT) was “approximately 9.5 mM”, the “temperature up to which the enzyme system is functional” value (S54V-MsAcT; 2 ppm S54V variant, 100 mM PGDA, 100 mM sodium percarbonate, 21, 40, 60° C.) was at least 60 °C and the “spores/ml after a 30 min incubation” value (B. subtilis spores [2]) was 5×10^9 spores/ml.
